Measurements from patent US8536336B2, “Prodrug compounds useful as cannabinoid ligands” (AbbVie Inc., priority 2009, dated 2013).
≈ marks a conversion by molar mass, not a printed value.

What was measured:
[1] = Solubility of prodrug in water or 0.1 N aqueous HCl (HPLC of filtrate); conditions: thermodynamic from solid
Experimental: (§1) Approximately 3 mg of prodrug was weighed into a vial and 750 μL of water or 0.1 N aqueous HCl was added. The mixtures were vortexed to wet the solids. The mixtures were equilibrated for 1 hour with gentle agitation in a constant temperature water bath (T=25° C. for water samples and T=37° C. for 0.1 N HCl samples). After equilibration, the mixtures were visually inspected to assure that the amount of excess solid was sufficient to permit re-characterization. If not, solubility was reported as greater than the weighed concentration of prodrug (concentrations were confirmed by HPLC). The solid phase was then separated from the liquid phase by filtration through a 13 mm 0.45 μm GHP syringe filter (Pall Corporation). The filtrate was diluted as needed for quantification of the material studied by HPLC, and the concentration of the filtrate was reported as the solubility of the prodrug in the given medium.

physchem = conditions: thermodynamic from solid
Experimental: as §1

[2] = In vivo regeneration of the parent compound after oral dosing of prodrug (plasma, HPLC-MS/MS); design: species or system Sprague-Dawley rats; conditions: rat, oral aqueous formulation by gavage, blood samples for 24 hours
Experimental: Male Sprague-Dawley rats, weighing 250-400 g, were obtained from Charles Rivers Laboratories. For the initial screening, each prodrug was evaluated in one group of three rats. All rats received an oral aqueous formulation (suspension or solution), administered by gavage. Sequential blood samples were obtained from a tail vein of each animal for 24 hours after dosing. Plasma was separated by centrifugation and stored frozen until analysis. Compounds were selectively removed from the plasma using protein precipitation followed by reverse phase HPLC with MS/MS detection for quantitation. Attempts were made to measure both the prodrug and the parent compounds in each sample.

[3] = 0.1 N aqueous HCl, 37 °C, simulated gastric fluid

Row | Compound | solubility at 1 h [1, 3] [µg/mL] | solubility at 1 h ([1]; water, 25 °C) [µg/mL] | solubility at 1 h (physchem; 25 °C, water) [µg/mL] | solubility at 1 h (physchem; 37 °C, simulated gastric fluid) [µg/mL] | Parent (Example 18) detected in plasma after dosing the prodrug [2] | Prodrug detected in plasma after dosing the prodrug [2]
1 | CCCCn1/c(=N/C(=O)c2cc(C(F)(F)F)ccc2OC[C@H](C)O)sc2cc[n+](COC(C)=O)cc21.[Br-] [Example 1, (2Z)-5-[(acetyloxy)methyl]-3-butyl-2-{[2-{[(2S)-2-hydroxypropyl]oxy}-5-(trifluoromethyl)benzoyl]imino}-2,3-dihydro[1,3]thiazolo[4,5-c]pyridin-5-ium bromide] | 2500 | 1800 |  |  |  | 
2 | CCCCn1/c(=N/C(=O)c2cc(C(F)(F)F)ccc2OC[C@H](C)OC(=O)C(C)(C)N)sc2ccncc21 [Example 2, (1S)-2-[2-({[(2Z)-3-butyl[1,3]thiazolo[4,5-c]pyridin-2(3H)-ylidene]amino}carbonyl)-4-(trifluoromethyl)phenoxy]-1-methylethyl 2-methylalaninate] | 4100 (≈ 7610 µM) | 2300 (≈ 4270 µM) |  |  |  | 
3 | CCCCn1/c(=N/C(=O)c2cc(C(F)(F)F)ccc2OC[C@H](C)OC(=O)CN)sc2ccncc21 [Example 3, (1S)-2-[2-({[(2Z)-3-butyl[1,3]thiazolo[4,5-c]pyridin-2(3H)-ylidene]amino}carbonyl)-4-(trifluoromethyl)phenoxy]-1-methylethyl glycinate] |  |  | 1200 (≈ 2350 µM) | > 4100 |  | 
4 | CCCCn1/c(=N/C(=O)c2cc(C(F)(F)F)ccc2OC[C@H](C)O)sc2cc[n+](COC(=O)C(C)(C)C)cc21.[Cl-] [Example 4, (2Z)-3-butyl-5-{[(2,2-dimethylpropanoyl)oxy]methyl}-2-{[2-{[(2S)-2-hydroxypropyl]oxy}-5-(trifluoromethyl)benzoyl]imino}-2,3-dihydro[1,3]thiazolo[4,5-c]pyridin-5-ium chloride] | 200 | 3300 |  |  |  | 
5 | CCCCn1/c(=N/C(=O)c2cc(C(F)(F)F)ccc2OC[C@H](C)O)sc2cc[n+](COC(=O)c3ccccc3)cc21.[Cl-] [Example 5, (2Z)-5-[(benzoyloxy)methyl]-3-butyl-2-{[2-{[(2S)-2-hydroxypropyl]oxy}-5-(trifluoromethyl)benzoyl]imino}-2,3-dihydro[1,3]thiazolo[4,5-c]pyridin-5-ium chloride] | 16 | 740 |  |  |  | 
6 | CCCCn1/c(=N/C(=O)c2cc(C(F)(F)F)ccc2OC[C@H](C)OC(=O)[C@H](C)N)sc2ccncc21 [Example 6, (1S)-2-[2-({[(2Z)-3-butyl[1,3]thiazolo[4,5-c]pyridin-2(3H)-ylidene]amino}carbonyl)-4-(trifluoromethyl)phenoxy]-1-methylethyl L-alaninate] | > 4100 | 2300 (≈ 4380 µM) |  |  |  | 
7 | CCCCn1/c(=N/C(=O)c2cc(C(F)(F)F)ccc2OC[C@H](C)O)sc2cc[n+](COC(=O)N3CCC[C@H]3C(=O)OC)cc21.[Cl-] [Example 7, (2Z)-3-butyl-2-{[2-{[(2S)-2-hydroxypropyl]oxy}-5-(trifluoromethyl)benzoyl]imino}-5-[({[(2S)-2-(methoxycarbonyl)pyrrolidin-1-yl]carbonyl}oxy)methyl]-2,3-dihydro[1,3]thiazolo[4,5-c]pyridin-5-ium chloride] | > 4300 | > 4300 |  |  |  | 
8 | CCCCn1/c(=N/C(=O)c2cc(C(F)(F)F)ccc2OC[C@H](C)O)sc2cc[n+](COC(=O)N(C)C)cc21.[Cl-] [Example 8, (2Z)-3-butyl-5-({[(dimethylamino)carbonyl]oxy}methyl)-2-{[2-{[(2S)-2-hydroxypropyl]oxy}-5-(trifluoromethyl)benzoyl]imino}-2,3-dihydro[1,3]thiazolo[4,5-c]pyridin-5-ium chloride] | > 4000 | 3900 |  |  |  | 
9 | CCCCn1/c(=N/C(=O)c2cc(C(F)(F)F)ccc2OC[C@H](C)OP(=O)(O)O)sc2ccncc21 [Example 9, (1S)-2-[2-({[(2Z)-3-butyl[1,3]thiazolo[4,5-c]pyridin-2(3H)-ylidene]amino}carbonyl)-4-(trifluoromethyl)phenoxy]-1-methylethyl dihydrogen phosphate] | 7 | 830 |  |  |  | 
10 | CCCCn1/c(=N/C(=O)c2cc(C(F)(F)F)ccc2OC[C@H](C)O)sc2cc[n+]([O-])cc21 [Example 12, N-[(2Z)-3-butyl-5-oxido[1,3]thiazolo[4,5-c]pyridin-2(3H)-ylidene]-2-{[(2S)-2-hydroxypropyl]oxy}-5-(trifluoromethyl)benzamide] |  |  |  |  | Measurable concentrations | Measurable concentrations
11 | CCCCn1/c(=N/C(=O)c2cc(C(F)(F)F)ccc2OC[C@H](C)OC(=O)CCC(=O)O)sc2ccncc21 [Example 14, 4-({(1S)-2-[2-({[(2Z)-3-butyl[1,3]thiazolo[4,5-c]pyridin-2(3H)-ylidene]amino}carbonyl)-4-(trifluoromethyl)phenoxy]-1-methylethyl}oxy)-4-oxobutanoic acid] |  |  | 73 (≈ 132 µM) | 10 (≈ 18.1 µM) |  | 
12 | CCCCn1/c(=N/C(=O)c2cc(C(F)(F)F)ccc2OC[C@H](C)OC(=O)NCCN(C)C)sc2ccncc21 [Example 15, (1S)-2-[2-({[(2Z)-3-butyl[1,3]thiazolo[4,5-c]pyridin-2(3H)-ylidene]amino}carbonyl)-4-(trifluoromethyl)phenoxy]-1-methylethyl 2-(dimethylamino)ethylcarbamate] | > 4000 | 680 (≈ 1200 µM) |  |  | Measurable concentrations | Measurable concentrations
13 | CCCCn1/c(=N/C(=O)c2cc(C(F)(F)F)ccc2OC[C@H](C)O)sc2ccncc21 [Example 18, N-[(2Z)-3-butyl[1,3]thiazolo[4,5-c]pyridin-2(3H)-ylidene]-2-{[(2S)-2-hydroxypropyl]oxy}-5-(trifluoromethyl)benzamide] | 4.3 (≈ 9.48 µM) | < 0.02 |  |  |  | 
